In paper PMC7926793, “Synthesis and Biological Evaluation of 1-(Diarylmethyl)-1H-1,2,4-triazoles and 1-(Diarylmethyl)-1H-imidazoles as a Novel Class of Anti-Mitotic Agent for Activity in Breast Cancer” (Pharmaceuticals, 2021):
Where two headings read alike, the source gives them in different places.

Legend:
NCI-H552 = assay: NCI 60 cell line screen (Non-Small Cell Lung Cancer); type: cell-based, human; conditions: for GI50: Homo sapiens, 60 cell, NCI-H552, NCI 5 dose assay; for Growth percentage: NCI-H552, single dose 10 µM
MALME-3M = assay: NCI 60 cell line screen (Melanoma); type: cell-based, human; conditions: single dose 10 µM
COLO 205 = assay: NCI 60 cell line screen (Colon Cancer); type: cell-based, human; conditions: for Growth percentage: COLO 205, single dose 10 µM; for GI50: Homo sapiens, COLO 205, NCI 5 dose assay
HCT-15 = assay: NCI 60 cell line screen (Colon Cancer); type: cell-based, human; conditions: for Growth percentage: HCT-15, single dose 10 µM; for GI50: Homo sapiens, HCT-15, NCI 5 dose assay
T-47D = assay: NCI 60 cell line screen (Breast Cancer); type: cell-based, human; conditions: single dose 10 µM
SNB-75 = assay: NCI 60 cell line screen (CNS Cancer); type: cell-based, human; conditions: for Growth percentage: SNB-75, single dose 10 µM
TK-10 = assay: NCI 60 cell line screen (Renal Cancer); type: cell-based, human; conditions: for Growth percentage: TK-10, single dose 10 µM
SNB-19 = assay: NCI 60 cell line screen (CNS Cancer); type: cell-based, human; conditions: for GI50: Homo sapiens, SNB-19, NCI 5 dose assay; for Growth percentage: SNB-19, single dose 10 µM
CYP1A1 = target: T1, CYP1A1 (Homo sapiens, UniProt P04798); assay: cytochrome P450 assay (DBF fluorescence); conditions: for IC50: IC50 CYP1A1; for inhibition at 25 min, 20 µg/mL: human, recombinant CYP1A1, pH 7.4, probe dibenzylfluorescein (DBF), 2.0 μM
T1 sequence (P04798 1-512): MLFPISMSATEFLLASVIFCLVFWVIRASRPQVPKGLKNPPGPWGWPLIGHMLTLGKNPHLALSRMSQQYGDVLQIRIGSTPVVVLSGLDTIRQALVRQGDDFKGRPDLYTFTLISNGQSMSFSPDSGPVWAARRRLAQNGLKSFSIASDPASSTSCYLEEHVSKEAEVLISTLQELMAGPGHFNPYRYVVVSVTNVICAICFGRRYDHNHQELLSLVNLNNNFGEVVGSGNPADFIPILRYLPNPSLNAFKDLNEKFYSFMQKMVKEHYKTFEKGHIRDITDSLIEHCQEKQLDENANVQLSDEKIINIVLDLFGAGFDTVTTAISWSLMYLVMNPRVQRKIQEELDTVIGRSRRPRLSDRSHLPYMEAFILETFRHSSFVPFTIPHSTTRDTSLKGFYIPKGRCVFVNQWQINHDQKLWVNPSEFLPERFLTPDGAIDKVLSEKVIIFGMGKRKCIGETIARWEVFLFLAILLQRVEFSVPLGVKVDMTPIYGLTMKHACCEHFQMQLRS

BT-549 = assay: NCI 60 cell line screen (Breast Cancer); type: cell-based, human; conditions: for Growth percentage: BT-549, single dose 10 µM; for GI50: Homo sapiens, BT-549, NCI 5 dose assay
SK-OV-3 = assay: NCI 60 cell line screen (Ovarian Cancer); type: cell-based, human; conditions: for GI50: Homo sapiens, SK-OV-3, NCI 5 dose assay; for Growth percentage: SK-OV-3, single dose 10 µM
[1] = system: MCF-7 human breast cancer cells; assay: alamarBlue cell viability assay; type: cell-based; conditions: 72 h; for viability at 1 µM: MCF7, read-out: cell viability (viable cells); for IC50: alamarBlue, read-out: Antiproliferative Activity MCF-7 Cells IC50
Experimental: (§1) The human breast carcinoma cell line MCF-7 was purchased from the European Collection of Animal Cell Cultures (ECACC) and cultured in Eagles minimum essential medium with 10% foetal bovine serum, 2 mM L-glutamine, and 100 μg/mL penicillin/streptomycin. The medium was supplemented with 1% non-essential amino acids. The human breast carcinoma cell line MDA-MB-231 was purchased from the ECACC. MDA-MB-231 cells were maintained in Dulbecco’s modified Eagle’s medium (DMEM) supplemented with 10% (v/v) foetal bovine serum, 2 mM L-glutamine, and 100 μg/mL penicillin/streptomycin (complete medium). HL-60 cells were derived from a patient with acute myeloid leukaemia and were obtained from the ECACC (Salisbury, UK). Cells were cultured in RPMI-1640 Glutamax medium supplemented with 10% FCS media and 100 μg/mL penicillin/streptomycin. MCF-10A cells were obtained as a kind gift from Dr Susan McDonnell, School of Chemical and Bioprocess Engineering, University College Dublin and were cultured in Dulbecco’s Modified Eagle Medium: Nutrient Mixture F-12 (DMEM/F12; Gibco) supplemented with 5% horse serum (Invitrogen), 20 ng mL^−1 epidermal growth factor (Merck Millipore), 0.5 μg mL^−1 hydrocortisone (Sigma,-Aldrich, Arklow, Co. Wicklow, Ireland), 100 ng mL^−1 cholera toxin (Sigma, Aldrich, Arklow, Co. Wicklow, Ireland), 10 μg mL^−1 insulin (Sigma, Aldrich, Arklow, Co. Wicklow, Ireland), and penicillin/streptomycin 5000 U mL^−1 (1%)(Gibco, Biosciences, 3 Charlemont Terrace, Crofton Road, Dun Laoghaire, Co Dublin, A96 K7H7, Ireland). Cells were maintained at 37 °C in 5% CO2 in a humidified incubator. All cells were sub-cultured 3 times/week by trypsinisation using TrypLE Express (1×).
(§2) Cells were seeded at a density of 2.5 × 10^4 cells/well (MCF-7, MDA-MB-231, MCF-10A cells) and 1 × 10^4 cells/well (HL-60) in 96-well plates (200 μL per well). After 24 h, cells were then treated with either medium alone, vehicle control (1% ethanol (v/v)) or with serial dilutions of CA-4 (4a), phenstatin (7a) or selected compounds (0.001–100 μM) in triplicate. Cell proliferation for MCF-7, MDA-MB-231, and MCF-10A cells was analysed using the alamarBlue assay (Invitrogen Corp.) according to the manufacturer’s instructions. After 67–69 h, alamarBlue (10% (v/v)) was added to each well, and plates were incubated for 3–5 h at 37 °C in the dark. Fluorescence was read using a 96-well fluorimeter with excitation at 530 nm and emission at 590 nm. Results were expressed as percentage viability relative to vehicle control (100%).

[2] = system: MDA-MB-231 human breast cancer cells; assay: alamarBlue cell viability assay; type: cell-based; conditions: read-out: Antiproliferative Activity MDA-MB-231 Cells IC50
Experimental: as §1, §2

SF539 = assay: NCI 60 cell line screen (CNS Cancer); type: cell-based, human; conditions: for GI50: Homo sapiens, SF-539, SF539, NCI 5 dose assay; for Growth percentage: SF539, single dose 10 µM
RPMI-8226 = assay: NCI 60 cell line screen (Leukemia); type: cell-based, human; conditions: for GI50: Homo sapiens, RPMI-8226, NCI 5 dose assay; for Growth percentage: RPMI-8226, single dose 10 µM
CCRF-CEM = assay: NCI 60 cell line screen (Leukemia); type: cell-based, human; conditions: for GI50: Homo sapiens, NCI 5 dose assay; for Growth percentage: single dose 10 µM
MOLT-4 = assay: NCI 60 cell line screen (Leukemia); type: cell-based, human; conditions: for GI50: Homo sapiens, MOLT-4, NCI 5 dose assay; for Growth percentage: MOLT-4, single dose 10 µM
SR = assay: NCI 60 cell line screen (Leukemia); type: cell-based, human; conditions: for Growth percentage: single dose 10 µM

| Compound | GI50 (NCI-H552) [nM] | Growth percentage (NCI-H552) [%] | Growth percentage (MALME-3M) [%] | Growth percentage (COLO 205) [%] | Growth percentage (HCT-15) [%] | Growth percentage (T-47D) [%] | Growth percentage (SNB-75) [%] | Growth percentage (TK-10) [%] | Growth percentage (SNB-19) [%] | IC50 (CYP1A1) [nM] | inhibition at 25 min, 20 µg/mL (CYP1A1) [%] | Growth percentage (BT-549) [%] | Growth percentage (SK-OV-3) [%] | viability at 1 µM ([1]; Homo sapiens) [%] | IC50 ([2]; Homo sapiens, MDA-MB-231, 72 h) [nM] | Growth percentage (SF539) [%] | Growth percentage (RPMI-8226) [%] | Growth percentage (CCRF-CEM) [%] | Growth percentage (MOLT-4) [%] | Growth percentage (SR) [%] | other results |
| --- | --- | --- | --- | --- | --- | --- | --- | --- | --- | --- | --- | --- | --- | --- | --- | --- | --- | --- | --- | --- | --- |
| COc1ccc(C(c2cc(OC)c(OC)c(OC)c2)n2cncn2)cc1O (stereo not shown) [19e, 5-((1H-1,2,4-Triazol-1-yl)(3,4,5-Trimethoxyphenyl)methyl)-2-Methoxyphenol] | 395 | 12.78 | 70.24 | -1.65 | 10.04 | 34.98 | 48.64 | 61.31 | 33.31 | > 53800 | 18.1 | 11.30 | 20.25 | 29 | 980 | 9.34 | 20.71 | 9.32 | 16.7 | – | GI50 (COLO 205): 332 nM; GI50 (HCT-15): 438 nM; GI50 (TK-10; Homo sapiens, TK-10, NCI 5 dose assay): > 100000 nM; GI50 (SNB-19): 578 nM; GI50 (BT-549): 618 nM; GI50 (SK-OV-3): 402 nM; IC50 ([2]; 72 h): 978 ± 130 nM; GI50 (SF539): 300 nM; GI50 (RPMI-8226): 452 nM; GI50 (CCRF-CEM): 402 nM; GI50 (MOLT-4): 510 nM |
| COc1ccc(C(c2cc(OC)c(OC)c(OC)c2)n2nccn2)cc1O (stereo not shown) [compound 24] | – | – | – | – | – | – | – | – | – | > 53800 | 12.8 | – | – | 27 | 74 ± 30 | – | – | – | – | – | IC50 ([1]; Homo sapiens, MCF7, 72 h): 52 ± 40 nM |
| COc1ccc(C(c2cc(OC)c(OC)c(OC)c2)N2CCCC2)cc1 (stereo not shown) [25g] | – | 58.47 | 85.32 | 71.23 | 52.67 | 89.77 | 84.06 | 88.29 | 90.50 | – | – | 81.58 | 77.46 | 82 | – | 95.69 | 97.42 | 71.21 | 78.09 | 23.87 | – |
| COc1ccc(C(c2cc(OC)c(OC)c(OC)c2)N2CCN(Cc3ccccc3)CC2)cc1 (stereo not shown) [27d] | – | 52.38 | 74.83 | 61.78 | 47.63 | 75.11 | 92.44 | 84.76 | 69.95 | – | – | 92.41 | 66.24 | – | – | 81.24 | 84.15 | 68.76 | 53.48 | 16.10 | – |
| COc1ccc(C(c2cc(OC)c(OC)c(OC)c2)n2ccnc2)cc1O (stereo not shown) [21l, 5-((1H-Imidazol-1-yl)(3,4,5-Trimethoxyphenyl)Methyl)-2-Methoxyphenol] | 247 | 12.12 | 66.57 | -9.99 | 7.70 | 42.62 | 56.72 | 52.86 | 30.51 | > 54000 | 18.4 | -0.07 | 21.78 | 31 | 237 ± 40 | 9.52 | 18.86 | 6.97 | 14.01 | 8.48 | GI50 (COLO 205): 361 nM; GI50 (HCT-15): 264 nM; GI50 (SNB-75; Homo sapiens, SNB-75, NCI 5 dose assay): 192 nM; GI50 (SR; Homo sapiens, NCI 5 dose assay): 182 nM; GI50 (SNB-19): 532 nM; GI50 (BT-549): 306 nM; GI50 (SK-OV-3): 465 nM; IC50 [1]: 132 ± 7 nM; IC50 ([1]; Homo sapiens, MCF7, 72 h): 130 nM; GI50 (SF539): 217 nM; GI50 (RPMI-8226): 385 nM; GI50 (CCRF-CEM): 289 nM; GI50 (MOLT-4): 565 nM |
| COc1ccc(C(c2cc(OC)c(OC)c(OC)c2)N2CCCCC2)cc1 (stereo not shown) [26b, 1-((4-Methoxyphenyl)(3,4,5-Trimethoxyphenyl)Methyl)Piperidine] | – | 19.85 | 55.25 | 16.14 | 20.63 | 33.59 | 26.61 | 57.56 | 30.43 | – | – | 49.73 | 16.68 | 78 | – | 27.71 | 41.20 | 29.91 | 31.54 | 18.46 | – |
